From paper PMC3402541, “Guanidylation and Tail Effects in Cationic Antimicrobial Lipopeptoids” (PLoS ONE, 2012) come the findings set out here.

Values after ≈ are worked out from the molar mass of the structure shown. Some results are limits rather than exact numbers.

The subject of test [1] is P.aeruginosa CAN-ICU 62308. The test is classed as cell-based, Pseudomonas aeruginosa. As to conditions: CAN-ICU 62308, Mueller-Hinton broth, 24 hr, 37°C, without replication; for MIC P.aeruginosa in the presence of 4% bovine serum albumin: 4% BSA added, macrobroth dilution; for MIC P.aeruginosa: CLSI macrobroth dilution, 5 x 10^5 CFU/mL. Summed up: (§1)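 Each strain, after two subcultures from frozen stock, was tested in glass tubes against doubling compound dilutions. Medium: cation-adjusted Mueller-Hinton broth; inoculum ~5 × 10^5 CFU/mL; 37°C, 24 hr.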

A further test concerns P.aeruginosa ATCC 27853. The test is classed as cell-based, Pseudomonas aeruginosa. As to conditions: ATCC 27853, Mueller-Hinton broth, 24 hr, 37°C, without replication; for MIC P.aeruginosa in the presence of 4% bovine serum albumin: 4% BSA added, macrobroth dilution; for MIC P.aeruginosa: CLSI macrobroth dilution, 5 x 10^5 CFU/mL. The gist of the method:
as §1
Background: Broth dilution looks for growth in wells or tubes with falling amounts of substance.

The test system of a further test is S.pneumoniae ATCC 49619. The test is classed as cell-based, Streptococcus pneumoniae. As to conditions: ATCC 49619, Mueller-Hinton broth, 24 hr, 37°C, without replication; for MIC S.pneumoniae in the presence of 4% bovine serum albumin: 4% BSA added, macrobroth dilution; for MIC S.pneumoniae: CLSI macrobroth dilution, 5 x 10^5 CFU/mL. Summed up: as §1
A further test has as its system MSSE 81388 CANWARD 2008. It is filed as cell-based, methicillin-susceptible S. epidermidis. As to conditions: 81388 CANWARD 2008, Mueller-Hinton broth, 24 hr, 37°C, without replication; for MIC MSSE in the presence of 4% bovine serum albumin: 4% BSA added, macrobroth dilution; for MIC MSSE: CLSI macrobroth dilution, 5 x 10^5 CFU/mL. The gist of the method: as §1
Another test has as its system Gram negative bacteria. Put plainly: MIC with 4% BSA, summary over Gram negative strains. It is filed as cell-based. As to conditions: 4% BSA added. On the procedure: Antimicrobial activity of the purified lipopeptoids was determined without replication against a panel of clinically relevant and standard reference bacterial strains according to CLSI macrobroth standards. Stock solutions at 512 µg/mL were prepared in water, with DMSO as needed, and testing was performed in glass test tubes using Muller-Hinton broth and bacteria adjusted to 5 × 10^5 CFU/mL. Bacteria were incubated with the lipopeptoid of interest for 24 hr at 37°C prior to reading. […]
After subculturing the relevant bacteria twice from frozen stock, in vitro activities of the antimicrobials were determined by macrobroth dilution methodology in accordance with the Clinical and Laboratory Standards Institute (CLSI) guidelines (3). The MICs were determined using glass test tubes (2 mL/tube) containing doubling antimicrobial dilutions of cation adjusted Mueller-Hinton broth inoculated to achieve a final concentration of approximately 5 x 10^5 CFU/mL, incubated in ambient air for 24 hr prior to reading. […]

Consider `NCCCCN(CC(N)=O)C(=O)CN(CCCCN)C(=O)CN(CCCCN)C(=O)CCC(F)(F)C(F)(F)C(F)(F)C(F)(F)C(F)(F)C(F)(F)C(F)(F)C(F)(F)F` [F11-NlysNlysNlys], for which, in test [1], the “MIC P.aeruginosa in the presence of 4% bovine serum albumin” value is reported as 512 µg/mL and the “MIC P.aeruginosa” value stood at 256 µg/mL (≈ 292 µM). For the same molecule, in the test on P.aeruginosa ATCC 27853, the “MIC P.aeruginosa in the presence of 4% bovine serum albumin” value worked out at 512 µg/mL and the “MIC P.aeruginosa” value is 128 µg/mL (≈ 146 µM). Also, in the test with S.pneumoniae ATCC 49619, the “MIC S.pneumoniae in the presence of 4% bovine serum albumin” value was 512 µg/mL and the “MIC S.pneumoniae” value came to 128 µg/mL (≈ 146 µM). For the same molecule, in the test with MSSE 81388 CANWARD 2008, the “MIC MSSE in the presence of 4% bovine serum albumin” value is listed as 128 µg/mL and the “MIC MSSE” value came to 32 µg/mL (≈ 36.5 µM).
As for `CCCCCCCCCCCCCCCC[N+](C)(C)C.[Cl-]` [CTAC, Cetyltrimethylammonium chloride, reference compound], in test [1], the “MIC P.aeruginosa in the presence of 4% bovine serum albumin” value was found to be 512 µg/mL and the “MIC P.aeruginosa” value came out at 64 µg/mL. Further, in the test with P.aeruginosa ATCC 27853, the “MIC P.aeruginosa in the presence of 4% bovine serum albumin” value was greater than 512 µg/mL and the “MIC P.aeruginosa” value is on record as 128 µg/mL. In the test on Gram negative bacteria, the “MIC against Gram negative bacteria with 4% BSA” value is recorded as no less than 512 µg/mL. In the test on S.pneumoniae ATCC 49619, the “MIC S.pneumoniae in the presence of 4% bovine serum albumin” value was found to be 8 µg/mL and the “MIC S.pneumoniae” value was determined as 2 µg/mL. Also, in the test with MSSE 81388 CANWARD 2008, the “MIC MSSE in the presence of 4% bovine serum albumin” value was 16 µg/mL and the “MIC MSSE” value worked out at 0.5 µg/mL.
Consider `NCCCCN(CC(N)=O)C(=O)CNC(=O)CN(CCCCN)C(=O)CCC(F)(F)C(F)(F)C(F)(F)C(F)(F)C(F)(F)C(F)(F)C(F)(F)C(F)(F)F` [F11-NlysGNlys], for which, in test [1], the “MIC P.aeruginosa in the presence of 4% bovine serum albumin” value was greater than 512 µg/mL and the “MIC P.aeruginosa” value turned out to be 512 µg/mL (≈ 636 µM). Further, in the test on P.aeruginosa ATCC 27853, the “MIC P.aeruginosa in the presence of 4% bovine serum albumin” value is greater than 512 µg/mL and the “MIC P.aeruginosa” value stood at 512 µg/mL (≈ 636 µM). Besides, in the test with S.pneumoniae ATCC 49619, the “MIC S.pneumoniae in the presence of 4% bovine serum albumin” value is given as 512 µg/mL and the “MIC S.pneumoniae” value is reported as 256 µg/mL (≈ 318 µM). Besides, in the test on MSSE 81388 CANWARD 2008, the “MIC MSSE in the presence of 4% bovine serum albumin” value amounted to 128 µg/mL and the “MIC MSSE” value came out at 32 µg/mL (≈ 39.8 µM).
